Experiments:
[1] = biological target: T1, Serine/threonine-protein kinase PAK 4 (Homo sapiens, UniProt O96013); assay: Inhibition of PAK4 (unknown origin)
Target sequence in this assay (O96013 whole entry): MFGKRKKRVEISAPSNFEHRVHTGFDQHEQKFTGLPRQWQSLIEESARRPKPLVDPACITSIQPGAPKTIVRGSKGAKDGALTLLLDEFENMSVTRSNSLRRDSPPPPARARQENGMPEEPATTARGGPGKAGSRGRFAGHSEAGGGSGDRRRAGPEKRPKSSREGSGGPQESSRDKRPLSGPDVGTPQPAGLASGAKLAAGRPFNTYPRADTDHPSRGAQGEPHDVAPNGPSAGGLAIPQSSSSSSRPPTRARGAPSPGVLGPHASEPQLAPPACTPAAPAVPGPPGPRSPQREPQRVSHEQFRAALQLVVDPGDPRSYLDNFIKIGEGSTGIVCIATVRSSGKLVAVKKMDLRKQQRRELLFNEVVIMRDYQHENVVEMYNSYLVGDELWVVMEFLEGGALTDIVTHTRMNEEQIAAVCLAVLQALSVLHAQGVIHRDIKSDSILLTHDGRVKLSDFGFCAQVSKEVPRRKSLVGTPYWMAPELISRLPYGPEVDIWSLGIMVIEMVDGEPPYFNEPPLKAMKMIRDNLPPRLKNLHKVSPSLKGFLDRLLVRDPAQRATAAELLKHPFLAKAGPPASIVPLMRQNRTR

[2] = biological target: T2, Serine/threonine-protein kinase PAK 1 (Homo sapiens, UniProt Q13153); assay: Inhibition of PAK1 (unknown origin)
[3] = biological target: T3, Aurora kinase A (Homo sapiens, UniProt O14965); assay: Inhibition of Aurora A (unknown origin)
T3 sequence (O14965 whole entry): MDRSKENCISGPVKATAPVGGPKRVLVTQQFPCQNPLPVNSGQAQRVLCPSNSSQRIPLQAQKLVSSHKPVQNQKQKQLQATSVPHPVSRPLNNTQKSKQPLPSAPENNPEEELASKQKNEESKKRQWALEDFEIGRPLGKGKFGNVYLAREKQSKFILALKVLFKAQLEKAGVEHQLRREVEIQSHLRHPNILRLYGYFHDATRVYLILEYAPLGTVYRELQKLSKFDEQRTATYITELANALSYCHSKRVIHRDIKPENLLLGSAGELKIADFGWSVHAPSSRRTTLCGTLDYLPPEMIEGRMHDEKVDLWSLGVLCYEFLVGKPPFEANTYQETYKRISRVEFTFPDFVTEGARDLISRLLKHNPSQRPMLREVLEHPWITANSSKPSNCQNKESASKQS

[4] = biological target: Cyclin-dependent kinase 5/CDK5 activator 1 (Homo sapiens) (UniProt Q00535+Q15078); conditions: 1 uM
Cyclin-dependent kinase 5/CDK5 activator 1 (Homo sapiens), sequence (Q00535 whole entry): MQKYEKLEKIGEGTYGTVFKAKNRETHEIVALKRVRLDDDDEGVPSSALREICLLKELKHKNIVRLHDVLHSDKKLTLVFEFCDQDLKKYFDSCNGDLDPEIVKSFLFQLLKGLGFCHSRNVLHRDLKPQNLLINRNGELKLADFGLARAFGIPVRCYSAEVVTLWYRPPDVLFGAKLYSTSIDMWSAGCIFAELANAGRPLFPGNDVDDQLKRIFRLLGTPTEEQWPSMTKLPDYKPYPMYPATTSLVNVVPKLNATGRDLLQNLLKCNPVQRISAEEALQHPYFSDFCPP
Cyclin-dependent kinase 5/CDK5 activator 1 (Homo sapiens), sequence (Q15078 99-307 partner limits assumed): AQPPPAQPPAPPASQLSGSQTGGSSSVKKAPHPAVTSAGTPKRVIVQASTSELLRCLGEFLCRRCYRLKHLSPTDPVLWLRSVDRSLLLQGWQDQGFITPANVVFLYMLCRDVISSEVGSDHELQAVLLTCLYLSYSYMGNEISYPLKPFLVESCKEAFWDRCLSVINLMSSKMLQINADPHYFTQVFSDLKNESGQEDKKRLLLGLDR
Description: Inhibition of recombinant human CDK5/p25 at 1 uM relative to control

[5] = system: Platelet-derived growth factor receptor alpha (Homo sapiens), P16234 [V561D]; conditions: 1 uM
Description: Inhibition of recombinant human PDGFRalpha V561D mutant at 1 uM relative to control

[6] = biological target: BDNF/NT-3 growth factors receptor (Homo sapiens) (UniProt Q16620); conditions: 1 uM
Description: Inhibition of recombinant human TrkB at 1 uM relative to control

[7] = biological target: Myotonin-protein kinase (Homo sapiens) (UniProt Q09013); conditions: 1 uM
Myotonin-protein kinase (Homo sapiens), sequence (Q09013 whole entry): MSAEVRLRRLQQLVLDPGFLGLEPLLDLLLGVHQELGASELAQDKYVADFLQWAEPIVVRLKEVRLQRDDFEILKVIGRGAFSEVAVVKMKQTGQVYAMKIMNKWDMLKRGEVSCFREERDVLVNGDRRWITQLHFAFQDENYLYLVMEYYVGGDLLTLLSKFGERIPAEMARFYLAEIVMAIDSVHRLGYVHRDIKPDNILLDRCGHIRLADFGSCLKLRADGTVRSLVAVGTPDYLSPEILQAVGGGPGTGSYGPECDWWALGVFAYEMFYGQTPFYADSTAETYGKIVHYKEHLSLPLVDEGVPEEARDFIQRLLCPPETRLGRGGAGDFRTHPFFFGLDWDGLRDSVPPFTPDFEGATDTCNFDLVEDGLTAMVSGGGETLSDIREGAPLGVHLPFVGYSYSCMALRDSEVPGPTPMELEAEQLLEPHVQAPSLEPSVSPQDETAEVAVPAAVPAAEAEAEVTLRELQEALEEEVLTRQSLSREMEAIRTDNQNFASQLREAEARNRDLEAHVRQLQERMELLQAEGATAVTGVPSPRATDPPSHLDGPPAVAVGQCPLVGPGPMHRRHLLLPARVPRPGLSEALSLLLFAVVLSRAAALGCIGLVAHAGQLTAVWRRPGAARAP
Description: Inhibition of recombinant human DMPK at 1 uM relative to control

[8] = biological target: Glycogen synthase kinase-3 alpha (Homo sapiens) (UniProt P49840); conditions: 1 uM
Description: Inhibition of GSK-3alpha (unknown origin) at 1 uM relative to control

[9] = biological target: CDK2/Cyclin A2 (Homo sapiens) (UniProt P24941+P20248); assay: Inhibition of recombinant human CDK2/cyclin A at 1 uM relative to control; type: protein-complex assay
[10] = biological target: Vascular endothelial growth factor receptor 2 (Homo sapiens) (UniProt P35968); conditions: 1 uM
Description: Inhibition of recombinant human KDR at 1 uM relative to control

[11] = biological target: Receptor-type tyrosine-protein kinase FLT3 (Homo sapiens) (UniProt P36888); conditions: 1 uM
Description: Inhibition of recombinant human FLT3 at 1 uM relative to control

[12] = biological target: Serine/threonine-protein kinase 4 (Homo sapiens) (UniProt Q13043); conditions: 1 uM
Description: Inhibition of recombinant human MST1 at 1 uM relative to control

[13] = biological target: Cyclin-dependent kinase 1/cyclin B1 (Homo sapiens) (UniProt P06493+P14635); conditions: 1 uM
Description: Inhibition of recombinant human CDK1/cyclin B at 1 uM relative to control

[14] = biological target: Ribosomal protein S6 kinase alpha-2 (Homo sapiens) (UniProt Q15349); conditions: 1 uM
Description: Inhibition of recombinant human RSK3 at 1 uM relative to control

[15] = biological target: Protein kinase C delta type (Homo sapiens) (UniProt Q05655); conditions: 1 uM
Description: Inhibition of recombinant human PKCdelta at 1 uM relative to control

[16] = biological target: Cyclin-dependent kinase 7/ cyclin H (Homo sapiens) (UniProt P51946+P50613); conditions: 1 uM
Description: Inhibition of recombinant human CDK7/cyclin H at 1 uM relative to control

[17] = biological target: Protein kinase C alpha type (Homo sapiens) (UniProt P17252); conditions: 1 uM
Description: Inhibition of recombinant human PKCalpha at 1 uM relative to control

[18] = biological target: Proto-oncogene tyrosine-protein kinase Src (Homo sapiens) (UniProt P12931); conditions: 1 uM
Description: Inhibition of recombinant human Src at 1 uM relative to control

[19] = biological target: T2, Serine/threonine-protein kinase PAK 1; conditions: 1 uM
Description: Inhibition of recombinant human PAK1 at 1 uM relative to control

[20] = biological target: Serine/threonine-protein kinase 3 (Homo sapiens) (UniProt Q13188); conditions: 1 uM
Description: Inhibition of recombinant human MST2 at 1 uM relative to control

[21] = biological target: Protein kinase C theta type (Homo sapiens) (UniProt Q04759); assay: Inhibition of recombinant human PKCtheta at 1 uM relative to control
Protein kinase C theta type (Homo sapiens), sequence (Q04759 whole entry, looked up): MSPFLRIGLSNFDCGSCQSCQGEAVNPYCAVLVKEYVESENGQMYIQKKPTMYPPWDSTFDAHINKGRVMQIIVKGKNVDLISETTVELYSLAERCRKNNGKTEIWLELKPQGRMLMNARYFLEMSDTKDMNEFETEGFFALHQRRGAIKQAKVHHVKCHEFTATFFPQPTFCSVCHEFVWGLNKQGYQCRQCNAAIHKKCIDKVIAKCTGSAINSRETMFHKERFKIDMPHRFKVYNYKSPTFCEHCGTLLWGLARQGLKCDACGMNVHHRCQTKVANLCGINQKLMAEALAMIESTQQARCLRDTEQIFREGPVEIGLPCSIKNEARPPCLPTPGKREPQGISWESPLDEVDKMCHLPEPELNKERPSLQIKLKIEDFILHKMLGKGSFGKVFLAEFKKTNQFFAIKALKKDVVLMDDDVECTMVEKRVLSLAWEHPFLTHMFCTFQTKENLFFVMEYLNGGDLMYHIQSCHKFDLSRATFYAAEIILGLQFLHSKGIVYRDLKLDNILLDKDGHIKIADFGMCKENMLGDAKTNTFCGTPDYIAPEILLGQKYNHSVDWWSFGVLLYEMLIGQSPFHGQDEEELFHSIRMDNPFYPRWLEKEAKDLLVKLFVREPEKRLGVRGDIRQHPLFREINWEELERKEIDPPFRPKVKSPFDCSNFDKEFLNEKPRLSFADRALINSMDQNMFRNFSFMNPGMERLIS

[22] = biological target: Tyrosine-protein kinase JAK2 (Homo sapiens) (UniProt O60674); conditions: 1 uM
Tyrosine-protein kinase JAK2 (Homo sapiens), sequence (O60674 whole entry): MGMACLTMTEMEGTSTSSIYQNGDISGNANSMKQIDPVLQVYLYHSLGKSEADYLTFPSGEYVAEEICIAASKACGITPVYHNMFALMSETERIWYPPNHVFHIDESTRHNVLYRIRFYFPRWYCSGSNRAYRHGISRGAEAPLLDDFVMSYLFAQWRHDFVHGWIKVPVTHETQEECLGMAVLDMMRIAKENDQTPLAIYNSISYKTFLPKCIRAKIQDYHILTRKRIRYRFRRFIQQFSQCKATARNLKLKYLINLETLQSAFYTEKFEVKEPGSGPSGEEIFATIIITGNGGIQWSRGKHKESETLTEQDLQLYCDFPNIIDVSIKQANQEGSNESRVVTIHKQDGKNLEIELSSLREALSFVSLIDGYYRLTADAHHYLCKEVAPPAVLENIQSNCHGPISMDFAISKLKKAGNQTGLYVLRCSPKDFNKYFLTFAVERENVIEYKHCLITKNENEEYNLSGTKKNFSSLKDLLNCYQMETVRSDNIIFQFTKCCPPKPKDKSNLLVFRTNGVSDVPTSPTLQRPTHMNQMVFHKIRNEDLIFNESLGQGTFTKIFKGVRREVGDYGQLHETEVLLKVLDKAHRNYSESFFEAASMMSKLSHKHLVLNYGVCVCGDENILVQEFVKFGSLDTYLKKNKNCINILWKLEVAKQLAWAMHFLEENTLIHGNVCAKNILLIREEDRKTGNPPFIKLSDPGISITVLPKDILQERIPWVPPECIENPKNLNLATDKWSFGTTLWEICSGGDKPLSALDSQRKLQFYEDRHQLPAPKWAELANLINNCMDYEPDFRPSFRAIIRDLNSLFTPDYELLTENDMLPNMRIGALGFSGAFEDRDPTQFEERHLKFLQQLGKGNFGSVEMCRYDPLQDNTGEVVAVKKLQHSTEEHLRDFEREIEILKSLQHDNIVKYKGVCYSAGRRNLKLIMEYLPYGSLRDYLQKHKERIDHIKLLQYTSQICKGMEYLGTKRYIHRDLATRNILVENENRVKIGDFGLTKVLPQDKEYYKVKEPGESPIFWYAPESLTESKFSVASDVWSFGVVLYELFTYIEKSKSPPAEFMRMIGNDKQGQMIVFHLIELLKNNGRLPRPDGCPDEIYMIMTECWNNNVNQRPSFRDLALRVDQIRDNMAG
Description: Inhibition of recombinant human JAK2 at 1 uM relative to control

[23] = biological target: T1, Serine/threonine-protein kinase PAK 4; conditions: 1 uM
Target sequence in this assay (O96013 whole entry, looked up): as the sequence (O96013 whole entry) above
Description: Inhibition of recombinant human PAK4 at 1 uM relative to control

[24] = biological target: Aurora kinase A (Homo sapiens) (UniProt O14965); conditions: 1 uM
Description: Inhibition of recombinant human Aurora A at 1 uM relative to control

[25] = biological target: Epidermal growth factor receptor (Homo sapiens) (UniProt P00533); conditions: 1 uM
Description: Inhibition of recombinant human EGFR at 1 uM relative to control

[26] = biological target: High affinity nerve growth factor receptor (Homo sapiens) (UniProt P04629); conditions: 1 uM
Description: Inhibition of recombinant human TrkA at 1 uM relative to control

[27] = biological target: Mitogen-activated protein kinase kinase kinase 9 (Homo sapiens) (UniProt P80192); conditions: 1 uM
Description: Inhibition of recombinant human MLK1 at 1 uM relative to control

[28] = biological target: Mitogen-activated protein kinase kinase kinase kinase 5 (Homo sapiens) (UniProt Q9Y4K4); conditions: 1 uM
Description: Inhibition of recombinant human KHS1 at 1 uM relative to control

[29] = Apparent permeability across apical to basolateral side of MDCK cells; type: ADME, cell-based, Canis lupus familiaris; conditions: dog
[30] = biological target: T2, Serine/threonine-protein kinase PAK 1; assay: Inhibition of PAK1 in human EBC1 cells assessed as inhibition of MEK phosphorylation at S298; type: cell-based
[31] = Oral bioavailability in mouse at 25 mg/kg; type: ADME, organism-based; conditions: in vivo
[32] = Lipophilicity, log D of the compound at pH 7.4; type: physicochemical; conditions: buffer
[33] = (§1) AUC in mouse at 25 mg/kg, po; type: ADME, organism-based; conditions: in vivo
[34] = Clearance in mouse at 0.3 mg/kg, iv; type: ADME, organism-based; conditions: in vivo
[35] = system: Mus musculus; assay: as §1; type: ADME, organism-based; conditions: in vivo, BLD = below limit of detection

T2 sequence (Q13153 whole entry): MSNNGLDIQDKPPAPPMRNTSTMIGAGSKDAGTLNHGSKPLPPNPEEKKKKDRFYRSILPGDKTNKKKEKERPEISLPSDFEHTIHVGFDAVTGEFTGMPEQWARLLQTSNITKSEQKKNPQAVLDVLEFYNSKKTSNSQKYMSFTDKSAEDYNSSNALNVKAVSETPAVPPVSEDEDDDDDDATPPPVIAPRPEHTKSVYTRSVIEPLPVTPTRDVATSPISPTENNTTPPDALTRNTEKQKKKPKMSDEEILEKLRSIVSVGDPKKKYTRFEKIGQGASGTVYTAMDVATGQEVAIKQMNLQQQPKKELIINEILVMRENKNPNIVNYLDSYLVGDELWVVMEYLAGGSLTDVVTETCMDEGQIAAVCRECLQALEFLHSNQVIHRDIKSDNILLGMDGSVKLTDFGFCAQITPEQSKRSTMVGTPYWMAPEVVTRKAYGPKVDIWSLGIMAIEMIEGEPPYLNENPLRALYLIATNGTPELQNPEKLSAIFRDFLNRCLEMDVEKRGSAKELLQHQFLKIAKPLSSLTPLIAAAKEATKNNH

Work on `COCC(C)c1cc(Nc2ccnc(N(C)Cc3ccc4[nH]cnc4c3Cl)n2)n[nH]1` (stereo not drawn) yielded a Ki [1] of 617 nM, a Ki [2] of 29 nM and a Ki [3] of 131 nM.

For `CN1CC[C@@H](c2cc(Nc3ccnc(N(C)Cc4ccc5[nH]cnc5c4Cl)n3)n[nH]2)C1=O`, the Ki [1] was greater than 2900 nM, the Ki [2] was 552 nM and the Ki [3] was greater than 5400 nM.

Compound `CCN1CC[C@H](c2cc(Nc3ccnc(N(C)C[C@H]4CC[C@H](N)CC4)n3)n[nH]2)C1=O` has a Ki [1] of 817 nM, a Ki [2] of 18 nM and a Ki [3] greater than 5400 nM.

`CN1CCCC(c2cc(Nc3ccnc(N(C)C[C@H]4CC[C@H](N)CC4)n3)n[nH]2)C1=O` (mixture of isomers) showed a Ki [1] of 2490 nM, a Ki [2] of 362 nM and a Ki [3] greater than 5400 nM.

In the case of `C[C@H]1CN(C)C(=O)[C@@H]1c1cc(Nc2ccnc(N(C)C[C@H]3CC[C@H](N)CC3)n2)n[nH]1`, the inhibition [4] is reported as less than 75%, the Ki [1] is reported as 1020 nM and the inhibition [5] is reported as less than 75%. For the same compound, the inhibition [6] was less than 75%, the inhibition [7] was less than 75% and the inhibition [8] was less than 75%. For the same compound, the inhibition [9] was less than 75%, the inhibition [10] was less than 75% and the inhibition [11] was less than 75%. It also gave an inhibition [12] of less than 75%, a Ki [2] of 46 nM and an inhibition [13] of less than 75%. For the same compound, the inhibition [14] was less than 75%, the Ki [3] was greater than 5400 nM and the inhibition [15] was less than 75%. The inhibition [16] was less than 75%, the inhibition [17] was less than 75% and the inhibition [18] was less than 75%. It also gave an inhibition [19] greater than 75%, an inhibition [20] of less than 75% and an inhibition [21] greater than 75%. The inhibition [22] was less than 75%, the inhibition [23] was less than 75% and the inhibition [24] was less than 75%. The inhibition [25] was less than 75%, the inhibition [26] was less than 75% and the inhibition [27] was less than 75%. For the same compound, the inhibition [28] was less than 75%.

Work on `CN(Cc1ccc2[nH]cnc2c1Cl)c1nccc(Nc2cc(C3CC3)[nH]n2)n1` yielded a Ki [1] of 272 nM, a Ki [2] of 5 nM and a Ki [3] of 3 nM.

In the case of `CN(Cc1ccc2[nH]cnc2c1Cl)c1nccc(Nc2cc(C3CCC(=O)C3)[nH]n2)n1` (racemic), the Ki [1] is reported as 629 nM, the Ki [2] is reported as 16 nM and the Ki [3] is reported as 17 nM.

For `CN1CC[C@H](c2cc(Nc3ccnc(N(C)Cc4ccc5[nH]cnc5c4Cl)n3)n[nH]2)C1=O`, the Papp A→B [29] was 5 ×10⁻⁶ cm/s, the Ki [1] was 950 nM and the IC50 [30] was 7800 nM. It also gave a bioavailability [31] of less than 1%, a logD [32] of 1.8 and a Ki [2] of 18 nM. For the same compound, the Ki [3] was greater than 5400 nM, the AUC [33] was 5.2 µM·h and the clearance [34] was 7 mL/min/kg.

Work on `Clc1c(CNc2nccc(Nc3cc(C4CCCO4)[nH]n3)n2)ccc2[nH]cnc12` (racemic) yielded a Ki [1] of 1300 nM, a Ki [2] of 25 nM and a Ki [3] of 25 nM.

Compound `CCN(C[C@H]1CC[C@H](N)CC1)c1nccc(Nc2cc([C@H]3CCN(C)C3=O)[nH]n2)n1` has a Ki [1] of 621 nM, an IC50 [30] greater than 10000 nM and an inhibition [9] of less than 75%. The bioavailability [31] was less than 1%, the logD [32] was 0.12 and the Ki [2] was 49 nM. For the same compound, the Ki [3] was greater than 5400 nM, the inhibition [21] was greater than 75% and the AUC [35] was “BLD”. For the same compound, the clearance [34] was 33 mL/min/kg.

For `CN1CC[C@H](c2cc(Nc3ccnc(NC[C@H]4CC[C@H](N)CC4)n3)n[nH]2)C1=O`, the Ki [1] was 1270 nM, the Ki [2] was 111 nM and the Ki [3] was greater than 5400 nM.

`CC(=O)N(C)Cc1cc(Nc2ccnc(N(C)Cc3ccc4[nH]cnc4c3Cl)n2)n[nH]1` gave a Ki [1] greater than 2900 nM, a Ki [2] of 373 nM and a Ki [3] of 893 nM.

Compound `CN1CC(C)(C)C(c2cc(Nc3ccnc(N(C)C[C@H]4CC[C@H](N)CC4)n3)n[nH]2)C1=O` (stereo partly drawn) has a Ki [1] greater than 2900 nM, a Ki [2] greater than 4500 nM and a Ki [3] greater than 5400 nM.

`CN1CC[C@H](c2cc(Nc3ccnc(N(C)C[C@H]4CC[C@H](N)CC4)n3)n[nH]2)C1=O` gave a Ki [1] of 344 nM, an IC50 [30] greater than 10000 nM and a bioavailability [31] of less than 1%. The logD [32] was 0.96, the Ki [2] was 37 nM and the Ki [3] was 3500 nM.
